One data set relates to soybean (Gl). The data set can be described thus: Test Example 6: crop plant selectivity by upland field soil treatment (soybean), phytotoxicity. Also noted: scale not given here. Format: in vivo. Particulars: 21st day after application. A digest of the protocol:
(§1)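 Soybean and weed seeds were sown in sand-filled pots and covered with soil, then given a pre-emergence soil application. Plants were grown on in a greenhouse, and herbicidal effect and crop phytotoxicity were scored against a set rating scale 21 days after application.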

For data set [1], the system named is common lambsquarters (Ch). The data set can be described thus: Test Example 6: crop plant selectivity by upland field soil treatment (soybean), herbicidal effects. Also noted: scale not given here. The settings on record: 21st day after application. The data set is classed as in vivo. In outline:
as §1

For data set [2], the system named is China jute (Ab). Described as above. Also noted: scale not given here. The data set is classed as in vivo. The settings on record: 21st day after application. In outline: as §1
Another data set has as its system barnyardgrass (Ec). The data set can be described thus: Test Example 1: herbicidal effects by paddy field soil treatment.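 Note: grade of growth control; 5 = at least 90%; 4 = 70 to 90%; 3 = 50 to 70%; 2 = 30 to 50%; 1 = 10 to 30%; 0 = under 10%.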 Format: in vivo. The settings on record: 100 g of the active ingredient per 10 ares, 21st day after the application, index 0-5 of Table 47. In outline:
(§2)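 Herbicidal effect was scored against a graded standard 21 days after treatment. Seeds were sown in puddled, leveled paddy soil flooded to 3 cm depth, and the active ingredient was applied at 100 g per 10 ares before greenhouse culture.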

The next data set relates to monochoria (Mo). The description is as above. Particulars: 100 g of the active ingredient per 10 ares, 21st day after the application, index 0-5 of Table 47. Format: in vivo. In outline: as §2
Another data set has as its system bulrush (Sc). The data set is described as above. The settings on record: 100 g of the active ingredient per 10 ares, 21st day after the application, index 0-5 of Table 47. The data set is classed as in vivo. In outline:
as §2

Another data set deals with corn (Ze). The data set can be described thus: Test Example 11: crop plant selectivity by upland field foliage treatment (corn), phytotoxicity. The settings on record: corn; foliage treatment; dose 1.6 g ai/10a; evaluated on 14th day after treatment; index per Table 47. A digest of the protocol: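 Corn with pale smartweed, slender amaranth, common lambsquarters and China jute sown in sand-filled pots and grown 2 weeks in a greenhouse before foliage treatment. Herbicidal effect and crop phytotoxicity scored on day 14 after treatment against a rating standard.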

Data set [3] deals with slender amaranth (Am). The data set can be described thus: Test Example 7: crop plant selectivity by upland field soil treatment (corn), herbicidal effects. Format: in vivo. More on the design: scale not given here. Particulars: 21st day after application. A digest of the protocol:
(§3)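 Corn and weed seeds were sown in sand-filled pots and covered with soil. After application, plants were grown in a greenhouse, and herbicidal effect and crop phytotoxicity were scored against fixed rating standards on day 21.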

For data set [4], the system named is common lambsquarters (Ch). The data set is described as above. Format: in vivo. More on the design: scale not given here. Particulars: 21st day after application. In outline: as §3
The test system of data set [5] is slender amaranth (Am). The data set can be described thus: Test Example 9: crop plant selectivity by upland field foliage treatment (wheat), herbicidal effects. Format: in vivo. Also noted: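 grade of growth control; 5 = at least 90%; 4 = 70 to 90%; 3 = 50 to 70%; 2 = 30 to 50%; 1 = 10 to 30%; 0 = under 10%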. The settings on record: dose 1.6 g ai/10a, 14th day after treatment. In outline: (§4)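 Wheat and broadleaf weeds were sown together in sand-filled pots and grown for 2 weeks in a greenhouse before foliar treatment. Herbicidal effect on weeds and phytotoxicity to wheat were scored visually against set grading standards on day 14 after treatment, with plants kept in the greenhouse.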

A further data set has as its system pale smartweed (Po). The description is as above. Format: in vivo. More on the design: scale not given here. The settings on record: dose 1.6 g ai/10a, 14th day after treatment. In outline: as §4
Data set [6] deals with common lambsquarters (Ch). The data set is described as above. The data set is classed as in vivo. Also noted: scale not given here. Particulars: dose 1.6 g ai/10a, 14th day after treatment. In outline: as §4
The test system of data set [7] is China jute (Ab). Described as above. The data set is classed as in vivo. More on the design: scale not given here. The settings on record: dose 1.6 g ai/10a, 14th day after treatment. In outline:
as §4
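Throughout, for Herbicidal effects Mo: grade of growth control; 5 = at least 90%; 4 = 70 to 90%; 3 = 50 to 70%; 2 = 30 to 50%; 1 = 10 to 30%; 0 = under 10%.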
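Throughout, for Herbicidal effects Sc: grade of growth control; 5 = at least 90%; 4 = 70 to 90%; 3 = 50 to 70%; 2 = 30 to 50%; 1 = 10 to 30%; 0 = under 10%.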

Regarding `C#CC(C)Oc1cc(-c2cn(C)c(C(F)(F)F)cc2=O)c(F)cc1Cl` (racemic) [Compound 6-10], in the data set on soybean (Gl) (dose 1.6 g ai/10a), the “Phytotoxicity Gl” value is reported as 0. In addition, in [1] (dose 1.6 g ai/10a), the “Herbicidal effects Ch” value is listed as 5. Also, the “Herbicidal effects Ab” value in the data set with China jute (Ab) [2] (dose 1.6 g ai/10a) is 4. The “Herbicidal effects Ec” value in the data set on barnyardgrass (Ec) turned out to be 5. Further, the “Herbicidal effects Mo” value in the data set on monochoria (Mo) was 5. For the same molecule, the “Herbicidal effects Sc” value with bulrush (Sc) is reported as 5. Further, the “Phytotoxicity Ze” value with corn (Ze) is reported as 1.
In the case of `COc1cc(-c2ccc(C(F)(F)F)n(C)c2=O)c(F)cc1Cl` [1-15], the “Phytotoxicity Gl” value in the data set on soybean (Gl) (dose 1.6 g ai/10a) came to 2. The “Herbicidal effects Ch” value in data set [1] (dose 1.6 g ai/10a) and in data set [4] (dose 1.6 g ai/10a) was 5 throughout. In addition, the “Herbicidal effects Ab” value in the data set on China jute (Ab) [2] (dose 1.6 g ai/10a) is reported as 5. Moreover, in the data set on slender amaranth (Am) [3] (dose 1.6 g ai/10a), the “Herbicidal effects Am” value came out at 5. Further, the “Herbicidal effects Ec” value in the data set on barnyardgrass (Ec) worked out at 5. For the same molecule, the “Herbicidal effects Mo” value with monochoria (Mo) is reported as 5. Further, the “Herbicidal effects Sc” value in the data set with bulrush (Sc) is listed as 5.
As to `C#CC(C)Oc1cc(-c2ccc(C(F)(F)F)n(C)c2=O)c(F)cc1Cl` (stereo not shown) [1-17], the “Phytotoxicity Gl” value with soybean (Gl) (dose 1.6 g ai/10a) is on record as 0. The “Herbicidal effects Ch” value in [1] (dose 1.6 g ai/10a), in data set [4] (dose 1.6 g ai/10a) and in [4] (dose 6.3 g ai/10a) was 5 throughout. The “Herbicidal effects Ab” value in the data set with China jute (Ab) [2] (dose 1.6 g ai/10a) stood at 5. The “Herbicidal effects Am” value in the data set with slender amaranth (Am) [3] (dose 1.6 g ai/10a) and in the data set on slender amaranth (Am) [3] (dose 6.3 g ai/10a) was 5 throughout. For the same molecule, the “Herbicidal effects Ec” value in the data set on barnyardgrass (Ec) was determined as 5. Further, the “Herbicidal effects Mo” value in the data set with monochoria (Mo) is on record as 5. The “Herbicidal effects Sc” value in the data set with bulrush (Sc) worked out at 5.
For `CC(C)Sc1cc(-c2ccc(C(F)(F)F)n(C)c2=O)c(F)cc1Cl` [1-43], the “Phytotoxicity Gl” value in the data set with soybean (Gl) (dose 6.3 g ai/10a) was 1. Moreover, the “Herbicidal effects Ch” value in [1] (dose 6.3 g ai/10a), in data set [4] (dose 6.3 g ai/10a) and in [6] was 5 throughout. In addition, the results for the “Herbicidal effects Ab” value in the data set on China jute (Ab) [2] (dose 6.3 g ai/10a) and in the data set with China jute (Ab) [7] were 4 and 5, respectively. Further, the “Herbicidal effects Am” value with slender amaranth (Am) [3] (dose 6.3 g ai/10a) and in the data set with slender amaranth (Am) [5] was 5 in each case. The “Herbicidal effects Ec” value in the data set on barnyardgrass (Ec) is listed as 5. For the same molecule, the “Herbicidal effects Mo” value in the data set on monochoria (Mo) is 5. Moreover, the “Herbicidal effects Sc” value with bulrush (Sc) is 5. The “Herbicidal effects Po” value with pale smartweed (Po) is recorded as 5.
Consider `C#CCSc1cc(-c2ccc(C(F)(F)F)n(C)c2=O)c(F)cc1Cl` [1-44], for which the “Phytotoxicity Gl” value with soybean (Gl) (dose 6.3 g ai/10a) turned out to be 1. Also, the “Herbicidal effects Ch” value in [1] (dose 6.3 g ai/10a), in [4] (dose 6.3 g ai/10a) and in data set [6] was 5 each time. Further, the “Herbicidal effects Ab” value in the data set with China jute (Ab) [2] (dose 6.3 g ai/10a) and in the data set on China jute (Ab) [7] was 5 each time. The “Herbicidal effects Am” value in the data set with slender amaranth (Am) [3] (dose 6.3 g ai/10a) and in the data set with slender amaranth (Am) [5] was 5 throughout. For the same molecule, the “Herbicidal effects Ec” value in the data set on barnyardgrass (Ec) is 5. Further, the “Herbicidal effects Mo” value in the data set with monochoria (Mo) was determined as 5. For the same molecule, the “Herbicidal effects Sc” value with bulrush (Sc) is given as 5. Also, the “Herbicidal effects Po” value in the data set with pale smartweed (Po) turned out to be 5.
For `Cc1cc(-c2ccc(C(F)(F)F)n(C)c2=O)c(F)cc1Cl` [1-90], the “Phytotoxicity Gl” value with soybean (Gl) (dose 1.6 g ai/10a) and in the data set with soybean (Gl) (dose 6.3 g ai/10a) was 2 throughout. In addition, the “Herbicidal effects Ch” value in [1] (dose 1.6 g ai/10a), in [1] (dose 6.3 g ai/10a), in data set [4] (dose 1.6 g ai/10a) and in data set [4] (dose 6.3 g ai/10a) was 5 each time. Moreover, the “Herbicidal effects Ab” value in the data set on China jute (Ab) [2] (dose 1.6 g ai/10a) and in the data set with China jute (Ab) [2] (dose 6.3 g ai/10a) was 5 each time. Also, the “Herbicidal effects Am” value with slender amaranth (Am) [3] (dose 1.6 g ai/10a) and in the data set with slender amaranth (Am) [3] (dose 6.3 g ai/10a) was 5 throughout. Moreover, in the data set on barnyardgrass (Ec), the “Herbicidal effects Ec” value was 5. In the data set with monochoria (Mo), the “Herbicidal effects Mo” value is 5. Also, the “Herbicidal effects Sc” value in the data set on bulrush (Sc) was 5.
`COCSc1cc(-c2ccc(C(F)(F)F)n(C)c2=O)c(F)cc1Cl` [1-91]: the “Phytotoxicity Gl” value amounted to 0 with soybean (Gl) (dose 1.6 g ai/10a) and 1 in the data set on soybean (Gl) (dose 6.3 g ai/10a). Also, the “Herbicidal effects Ch” value in data set [1] (dose 1.6 g ai/10a), in data set [1] (dose 6.3 g ai/10a), in [4] (dose 1.6 g ai/10a), in data set [4] (dose 6.3 g ai/10a) and in data set [6] was 5 throughout. Further, the “Herbicidal effects Ab” value in the data set with China jute (Ab) [2] (dose 1.6 g ai/10a), in the data set with China jute (Ab) [2] (dose 6.3 g ai/10a) and in the data set with China jute (Ab) [7] was 5 throughout. Also, the “Herbicidal effects Am” value with slender amaranth (Am) [3] (dose 1.6 g ai/10a), in the data set with slender amaranth (Am) [3] (dose 6.3 g ai/10a) and in the data set on slender amaranth (Am) [5] was 5 each time. In addition, in the data set on barnyardgrass (Ec), the “Herbicidal effects Ec” value was 5. Also, the “Herbicidal effects Mo” value with monochoria (Mo) was determined as 5. In addition, the “Herbicidal effects Sc” value in the data set with bulrush (Sc) turned out to be 5. In addition, the “Herbicidal effects Po” value in the data set on pale smartweed (Po) is given as 5.

The record behind these values is US6472348B1, “Pyridone derivatives and herbicides” (Kumiai Chemical Industry Co., Ltd., priority 1996, dated 2002).
